The values that follow come from US20210169892A1, “MODULATORS OF THE INTEGRATED STRESS PATHWAY” (Calico Life Sciences LLC, priority 2017, published 2021).

This assay concerns HEK293T cells carrying the ATF4 luciferase reporter. Briefly: ATF4-Luc assay (in vitro model of vanishing white matter disease). Format: cell-based. The conditions noted are these: Homo sapiens, HEK-293T; HEK293T cells with ATF4 luciferase reporter, 1 μg/mL tunicamycin, 7 hours, One Glo luminescence. The method, then:
In order to test exemplary compounds of the invention in a cellular context, a stable VWMD cell line was first constructed. The ATF4 reporter was prepared by fusing the human full-length ATF4 5′-UTR (NCBI Accession No. BC022088.2) in front of the firefly luciferase (FLuc) coding sequence lacking the initiator methionine as described in Sidrauski et al (eLife 2013). The construct was used to produce recombinant retroviruses using standard methods and the resulting viral supernatant was used to transduce HEK293T cells, which were then subsequently selected with puromycin to generate a stable cell line.
HEK293T cells carrying the ATF4 luciferase reporter were plated on polylysine coated 384-well plates (Greiner Bio-one) at 30,000 cells per well. Cells were treated the next day with 1 μg/mL tunicamycin and 200 nM of a compound of Formula (I) for 7 hours. Luminescence was measured using One Glo (Promega) as specified by the manufacturer. Cells were maintained in DMEM with L-glutamine supplemented with 10% heat-inactivated FBS (Gibco) and Antibiotic-Antimycotic solution (Gibco).
Table 2 below summarizes the EC50 data obtained using the ATF4-Luc assay for exemplary compounds of the invention.
In general terms: Reporter assays use an easily measured gene product as a stand-in for the process of interest.

Consider `O=C(COc1ccc(Cl)c(F)c1)NC12CC(NC(=O)[C@H]3CNc4cc(Cl)ccc4O3)(C1)C2` (single isomer, unassigned) [Compound 102], for which the EC50 – broadly, the concentration needed to bring the measured effect to its halfway point – is under 10 nM.

Turning to `O=C(COc1ccc(Cl)c(F)c1)NC12CC(NC(=O)[C@@H]3CNc4cc(Cl)ccc4O3)(C1)C2` (single isomer, unassigned) [Compound 103], the EC50 was under 10 nM.

Turning to `CN1C[C@@H](C(=O)NC23CC(NC(=O)COc4ccc(Cl)c(F)c4)(C2)C3)Oc2ccc(Cl)cc21` (single isomer, unassigned) [Compound 104], the EC50 was under 10 nM.

With `O=C(COc1ccc(Cl)c(F)c1)NC12CC(NC(=O)[C@H]3CN(C(=O)[C@H]4C[C@H]4F)c4cc(Cl)ccc4O3)(C1)C2` (single isomer, unassigned) [Compound 142], the EC50 fell in the range of 50 to 250 nM.

`O=C(COc1ccc(Cl)c(F)c1)NC12CC(NC(=O)[C@@H]3CN(C(=O)[C@H]4C[C@H]4F)c4cc(Cl)ccc4O3)(C1)C2` (single isomer, unassigned) [Compound 144]: the EC50 was in the range of 50 to 250 nM.

In the case of `O=C(COc1ccc(Cl)c(F)c1)NC12CC(NC(=O)[C@@H]3C[C@H](O)c4cc(Cl)ccc4O3)(C1)C2` (single isomer, unassigned) [Compound 195], the half-maximal effective concentration (EC50) is under 10 nM.

Regarding `CC(C)(C)OC(=O)CN1C[C@@H](C(=O)NC23CCC(NC(=O)COc4ccc(Cl)c(F)c4)(CC2)C(O)C3)Oc2ccc(Cl)cc21` (stereo in doubt) [Compound 184, tert-butyl [(2S)-6-chloro-2-({(3S)-4-[2-(4-chloro-3-fluorophenoxy)acetamido]-3-hydroxybicyclo[2.2.2]octan-1-yl}carbamoyl)-2,3-dihydro-4H-1,4-benzoxazin-4-yl]acetate], the EC50 lay in the range of 250 to 500 nM.

Turning to `O=C(COc1ccc(Cl)c(F)c1)NC12CCC(NC(=O)C3Oc4ccccc4O3)(CC1)CC2` [Compound 100, N-{4-[2-(4-chloro-3-fluorophenoxy)acetamido]bicyclo[2.2.2]octan-1-yl}-2H-1,3-benzodioxole-2-carboxamide], the EC50 is over 2000 nM.

Consider `O=C(CN1CCc2cc(Cl)ccc21)NC12CCC(NC(=O)COc3ccc(Cl)c(F)c3)(CC1)[C@@H](O)C2` [Compound 101, 2-(5-chloro-2,3-dihydro-1H-indol-1-yl)-N-{(3S)-4-[2-(4-chloro-3-fluorophenoxy)acetamido]-3-hydroxybicyclo[2.2.2]octan-1-yl}acetamide], for which the EC50 lay in the range of 500 to 2000 nM.

On to `O=C(COc1ccc(Cl)c(F)c1)NC12CCC(NC(=O)[C@@H]3CCc4cc(F)ccc4O3)(CC1)C[C@@H]2O` [Compound 105, (2S)—N-{(3S)-4-[2-(4-chloro-3-fluorophenoxy)acetamido]-3-hydroxybicyclo[2.2.2]octan-1-yl}-6-fluoro-3,4-dihydro-2H-1-benzopyran-2-carboxamide], for which the concentration giving a half-maximal response (EC50) was under 10 nM.

On to `O=C(COc1ccc(Cl)c(F)c1)NC12CCC(NC(=O)[C@H]3CCc4cc(F)ccc4O3)(CC1)C[C@@H]2O` [Compound 106, (2R)—N-{(3S)-4-[2-(4-chloro-3-fluorophenoxy)acetamido]-3-hydroxybicyclo[2.2.2]octan-1-yl}-6-fluoro-3,4-dihydro-2H-1-benzopyran-2-carboxamide], for which the EC50 was under 10 nM.

On to `CN1C[C@@H](C(=O)NC23CCC(NC(=O)COc4ccc(Cl)c(F)c4)(CC2)[C@@H](O)C3)Oc2ccc(Cl)cc21` [Compound 107, 6-chloro-N-{(3S)-4-[2-(4-chloro-3-fluorophenoxy)acetamido]-3-hydroxybicyclo[2.2.2]octan-1-yl}-4-methyl-3,4-dihydro-2H-1,4-benzoxazine-2-carboxamide], for which the EC50 is under 10 nM.

With `O=C(COc1ccc(Cl)c(F)c1)NC12CC(NC(=O)C3CNc4cc(F)c(F)cc4O3)(C1)C2` (stereo not shown) [Compound 108, N-{3-[2-(4-chloro-3-fluorophenoxy)acetamido]bicyclo[1.1.1]pentan-1-yl}-6,7-difluoro-3,4-dihydro-2H-1,4-benzoxazine-2-carboxamide], the EC50 was under 10 nM.

For the compound `O=C(COc1ccc(Cl)c(F)c1)NC12CC(NC(=O)C3Oc4ccccc4NC3=O)(C1)C2` (stereo not shown) [Compound 109, N-{3-[2-(4-chloro-3-fluorophenoxy)acetamido]bicyclo[1.1.1]pentan-1-yl}-3-oxo-3,4-dihydro-2H-1,4-benzoxazine-2-carboxamide], the EC50 was in the range of 500 to 2000 nM.

Turning to `O=C(COc1ccc(Cl)c(F)c1)NC12CCC(NC(=O)C3CNc4ccccc4O3)(CC1)C[C@@H]2O` (stereo partly drawn) [Compound 110, N-{(3S)-4-[2-(4-chloro-3-fluorophenoxy)acetamido]-3-hydroxybicyclo[2.2.2]octan-1-yl}-3,4-dihydro-2H-1,4-benzoxazine-2-carboxamide], the EC50 was 10 to 50 nM.

Regarding `CN1CC(C(=O)NC23CCC(NC(=O)COc4ccc(Cl)c(F)c4)(CC2)[C@@H](O)C3)Oc2ccccc21` (stereo partly drawn) [Compound 111, N-{(3S)-4-[2-(4-chloro-3-fluorophenoxy)acetamido]-3-hydroxybicyclo[2.2.2]octan-1-yl}-4-methyl-3,4-dihydro-2H-1,4-benzoxazine-2-carboxamide], the EC50 fell in the range of 50 to 250 nM.

As for `CN1CC(C(=O)NC23CC(NC(=O)COc4ccc(Cl)c(F)c4)(C2)C3)Oc2ccc(Cl)cc21` (stereo not shown) [Compound 112, 6-chloro-N-{3-[2-(4-chloro-3-fluorophenoxy)acetamido]bicyclo[1.1.1]pentan-1-yl}-4-methyl-3,4-dihydro-2H-1,4-benzoxazine-2-carboxamide], the EC50 was under 10 nM.

`O=C(COc1ccc(Cl)c(F)c1)NC12CC(NC(=O)C3CNc4cc(Cl)ccc4O3)(C1)C2` (stereo not shown) [Compound 113, 6-chloro-N-{3-[2-(4-chloro-3-fluorophenoxy)acetamido]bicyclo[1.1.1]pentan-1-yl}-3,4-dihydro-2H-1,4-benzoxazine-2-carboxamide]: the EC50 is under 10 nM.

As for `O=C(COc1ccc(Cl)c(F)c1)NC12CCC(NC(=O)C3CNc4cc(Cl)ccc4O3)(CC1)C[C@@H]2O` (stereo partly drawn) [Compound 114, 6-chloro-N-{(3S)-4-[2-(4-chloro-3-fluorophenoxy)acetamido]-3-hydroxybicyclo[2.2.2]octan-1-yl}-3,4-dihydro-2H-1,4-benzoxazine-2-carboxamide], the 50% effective concentration (EC50) is under 10 nM.

For the compound `O=C(COc1ccc(Cl)c(F)c1)NC12CCC(NC(=O)[C@H]3COc4cc(Cl)ccc4O3)(CC1)C[C@@H]2O` [Compound 115, (2R)-6-chloro-N-{(3S)-4-[2-(4-chloro-3-fluorophenoxy)acetamido]-3-hydroxybicyclo[2.2.2]octan-1-yl}-2,3-dihydro-1,4-benzodioxine-2-carboxamide], the EC50 is under 10 nM.

On to `O=C(COc1ccc(Cl)c(Cl)c1)NC12CCC(NC(=O)[C@H]3COc4cc(Cl)ccc4O3)(CC1)C[C@@H]2O` [Compound 116, (2R)-6-chloro-N-{(3S)-4-[2-(3,4-dichlorophenoxy)acetamido]-3-hydroxybicyclo[2.2.2]octan-1-yl}-2,3-dihydro-1,4-benzodioxine-2-carboxamide], for which the EC50 was under 10 nM.

In the case of `O=C(COc1ccc(F)c(F)c1)NC12CC(NC(=O)C3COc4cc(Cl)c(Cl)cc4O3)(C1)C2` (stereo not shown) [Compound 117, 6,7-dichloro-N-{3-[2-(3,4-difluorophenoxy)acetamido]bicyclo[1.1.1]pentan-1-yl}-2,3-dihydro-1,4-benzodioxine-2-carboxamide], the EC50 is under 10 nM.

`O=C(COc1ccc(Cl)c(F)c1)NC12CC(NC(=O)C3COc4cc(F)c(F)cc4O3)(C1)C2` (stereo not shown) [Compound 118, N-{3-[2-(4-chloro-3-fluorophenoxy)acetamido]bicyclo[1.1.1]pentan-1-yl}-6,7-difluoro-2,3-dihydro-1,4-benzodioxine-2-carboxamide]: the EC50 is under 10 nM.

Regarding `O=C(COc1ccc(Cl)c(F)c1)NC12CC(NC(=O)[C@H]3COc4cc(Cl)ccc4O3)(C1)C2` [Compound 119, (2R)-6-chloro-N-{3-[2-(4-chloro-3-fluorophenoxy)acetamido]bicyclo[1.1.1]pentan-1-yl}-2,3-dihydro-1,4-benzodioxine-2-carboxamide], the concentration for a half-maximal effect (EC50) was under 10 nM.

For the compound `O=C(COc1ccc(Cl)c(F)c1)NC12CC(NC(=O)[C@H]3CCc4cc(F)ccc4O3)(C1)C2` [Compound 120, (2R)—N-{3-[2-(4-chloro-3-fluorophenoxy)acetamido]bicyclo[1.1.1]pentan-1-yl}-6-fluoro-3,4-dihydro-2H-1-benzopyran-2-carboxamide], the EC50 was under 10 nM.

In the case of `O=C(COc1ccc(Cl)c(F)c1)NC12CC(NC(=O)[C@@H]3CCc4cc(F)ccc4O3)(C1)C2` [Compound 121, (2S)—N-{3-[2-(4-chloro-3-fluorophenoxy)acetamido]bicyclo[1.1.1]pentan-1-yl}-6-fluoro-3,4-dihydro-2H-1-benzopyran-2-carboxamide], the concentration for a half-maximal effect (EC50) is under 10 nM.

On to `O=C(COc1ccc(Cl)c(F)c1)NC12CC(NC(=O)C3COc4ccccc4O3)(C1)C2` (stereo not shown) [Compound 122, N-{3-[2-(4-chloro-3-fluorophenoxy)acetamido]bicyclo[1.1.1]pentan-1-yl}-2,3-dihydro-1,4-benzodioxine-2-carboxamide], for which the EC50 was in the range of 10 to 50 nM.

As to `O=C(COc1ccc(Cl)c(F)c1)NC12CCC(NC(=O)C3COc4ccccc4O3)(CC1)[C@H](O)C2` (stereo partly drawn) [Compound 123, N-{(2R)-4-[2-(4-chloro-3-fluorophenoxy)acetamido]-2-hydroxybicyclo[2.2.2]octan-1-yl}-2,3-dihydro-1,4-benzodioxine-2-carboxamide], the EC50 was in the range of 250 to 500 nM.
